Measurements: ChEMBL document CHEMBL5055685, “Discovery of the First Potent IDO1/IDO2 Dual Inhibitors: A Promising Strategy for Cancer Immunotherapy” (J Med Chem, 2021)
Activity calls are given as the source filed them. The rule behind the calls is not given here.

Key:
[1] = biological target: Serine/threonine-protein kinase Nek8 (Homo sapiens) (UniProt Q86SG6); assay: Inhibition of NEK8 (unknown origin) at 1 uM
[2] = biological target: Serine/threonine-protein kinase OSR1 (Homo sapiens) (UniProt O95747); assay: Inhibition of OSR1 (unknown origin) at 1 uM
[3] = biological target: Serine/threonine-protein kinase SIK3 (Homo sapiens) (UniProt Q9Y2K2); assay: Inhibition of SIK3 (unknown origin) at 1 uM
[4] = biological target: Ephrin type-A receptor 5 (Homo sapiens) (UniProt P54756); assay: Inhibition of EPHA5 (unknown origin) at 1 uM
[5] = biological target: Serine/threonine-protein kinase MARK1 (Homo sapiens) (UniProt Q9P0L2); assay: Inhibition of MARK1 (unknown origin) at 1 uM
[6] = biological target: Dual specificity protein kinase CLK2 (Homo sapiens) (UniProt P49760); assay: Inhibition of CLK2 (unknown origin) at 1 uM
[7] = biological target: CDK9/cyclin T1 (Homo sapiens) (UniProt O60563+P50750); assay: Inhibition of CDK9/cyclin-T1 (unknown origin) at 1 uM; type: protein-complex assay
[8] = biological target: Serine/threonine-protein kinase WNK1 (Homo sapiens) (UniProt Q9H4A3); assay: Inhibition of WNK1 (unknown origin) at 1 uM
[9] = biological target: Rho-associated protein kinase 1 (Homo sapiens) (UniProt Q13464); assay: Inhibition of ROCK1 (unknown origin) at 1 uM
[10] = biological target: Tyrosine-protein kinase TXK (Homo sapiens) (UniProt P42681); assay: Inhibition of TXK (unknown origin) at 1 uM
[11] = biological target: Cyclin-dependent kinase 5/CDK5 activator 1 (Homo sapiens) (UniProt Q00535+Q15078); assay: Inhibition of CDK5/p25 (unknown origin) at 1 uM; type: protein-complex assay
[12] = biological target: Inhibitor of nuclear factor kappa-B kinase subunit beta (Homo sapiens) (UniProt O14920); assay: Inhibition of IKKbeta (unknown origin) at 1 uM
[13] = biological target: Calcium/calmodulin-dependent protein kinase type II subunit alpha (Homo sapiens) (UniProt Q9UQM7); assay: Inhibition of CAMK2A (unknown origin) at 1 uM
[14] = biological target: Protein-tyrosine kinase 2-beta (Homo sapiens) (UniProt Q14289); assay: Inhibition of PYK2 (unknown origin) at 1 uM
[15] = biological target: Calcium/calmodulin-dependent protein kinase type II subunit delta (Homo sapiens) (UniProt Q13557); assay: Inhibition of CAMK2D (unknown origin) at 1 uM
[16] = biological target: Serine/threonine-protein kinase 38 (Homo sapiens) (UniProt Q15208); assay: Inhibition of STK38 (unknown origin) at 1 uM
[17] = biological target: Focal adhesion kinase 1 (Homo sapiens) (UniProt Q05397); assay: Inhibition of FAK (unknown origin) at 1 uM
[18] = biological target: Mitogen-activated protein kinase kinase kinase 3 (Homo sapiens) (UniProt Q99759); assay: Inhibition of MEKK3 (unknown origin) at 1 uM
[19] = AUC (0 to infinity) in Sprague-Dawley rat at 5 mg/kg, iv; type: ADME, organism-based; set-up: time infinity, dose 5 mg/kg, route iv; conditions: Sprague-Dawley, in vivo
[20] = biological target: Epithelial discoidin domain-containing receptor 1 (Homo sapiens) (UniProt Q08345); assay: Inhibition of DDR1 (unknown origin) at 1 uM
[21] = biological target: Tyrosine-protein kinase JAK3 (Homo sapiens) (UniProt P52333); assay: Inhibition of JAK3 (unknown origin) at 1 uM
[22] = biological target: Non-receptor tyrosine-protein kinase TNK1 (Homo sapiens) (UniProt Q13470); assay: Inhibition of TNK1 (unknown origin) at 1 uM
[23] = biological target: Myosin-IIIb (Homo sapiens) (UniProt Q8WXR4); assay: Inhibition of MYO3B (unknown origin) at 1 uM
Mus musculus = assay: Toxicity in BALB/c mouse implanted with mouse CT26 cells assessed as adverse effect at 50 mg/kg, ip bid for 28 days; type: organism-based; conditions: in vivo, 672 h, time 28 day
[24] = Protein binding in Sprague-Dawley rat plasma assessed as fraction unbound by equilibrium dialysis; type: ADME, cell-free
[25] = biological target: Myosin light chain kinase 2, skeletal/cardiac muscle (Homo sapiens) (UniProt Q9H1R3); assay: Inhibition of MLCK2 (unknown origin) at 1 uM
[26] = biological target: Mitogen-activated protein kinase 1 (Homo sapiens) (UniProt P28482); assay: Inhibition of ERK2 (unknown origin) at 1 uM
[27] = biological target: Serine/threonine-protein kinase PLK1 (Homo sapiens) (UniProt P53350); assay: Inhibition of PLK1 (unknown origin) at 1 uM
Rattus norvegicus = assay: Toxicity in rat assessed as weight loss at […]; type: organism-based; conditions: in vivo
[28] = biological target: Mitogen-activated protein kinase kinase kinase kinase 3 (Homo sapiens) (UniProt Q8IVH8); assay: Inhibition of GLK (unknown origin) at 1 uM
[29] = biological target: Calcium/calmodulin-dependent protein kinase type 1G (Homo sapiens) (UniProt Q96NX5); assay: Inhibition of CAMK1G (unknown origin) at 1 uM
[30] = biological target: MAP kinase-interacting serine/threonine-protein kinase 1 (Homo sapiens) (UniProt Q9BUB5); assay: Inhibition of MNK1 (unknown origin) at 1 uM
[31] = biological target: Cyclin-dependent kinase 2/cyclin E1 (Homo sapiens) (UniProt P24864+P24941); assay: Inhibition of CDK2/cyclin-E (unknown origin) at 1 uM; type: protein-complex assay
[32] = biological target: Ribosomal protein S6 kinase alpha-5 (Homo sapiens) (UniProt O75582); assay: Inhibition of MSK1 (unknown origin) at 1 uM
[33] = biological target: NUAK family SNF1-like kinase 1 (Homo sapiens) (UniProt O60285); assay: Inhibition of ARK5 (unknown origin) at 1 uM
[34] = biological target: Casein kinase I isoform alpha (Homo sapiens) (UniProt P48729); assay: Inhibition of CK1a1 (unknown origin) at 1 uM
[35] = biological target: Homeodomain-interacting protein kinase 3 (Homo sapiens) (UniProt Q9H422); assay: Inhibition of HIPK3 (unknown origin) at 1 uM
[36] = biological target: Serine/threonine-protein kinase SBK1 (Homo sapiens) (UniProt Q52WX2); assay: Inhibition of SBK1 (unknown origin) at 1 uM
[37] = biological target: Fibroblast growth factor receptor 2 (Homo sapiens) (UniProt P21802); assay: Inhibition of FGFR2 (unknown origin) at 1 uM
[38] = biological target: Serine/threonine-protein kinase PAK 6 (Homo sapiens) (UniProt Q9NQU5); assay: Inhibition of PAK6 (unknown origin) at 1 uM
HCT-116 = assay: Antitumor immunity in BALB/c mouse xenografted with human HCT-116 cells assessed as late Treg cells in tumor-draining lymph nodes by propidium iodide staining based flow cytometry analysis (reference value: 18.3 %); type: functional
[39] = biological target: TGF-beta receptor type-2 (Homo sapiens) (UniProt P37173); assay: Inhibition of TGFBR2 (unknown origin) at 1 uM
[40] = biological target: Serine/threonine-protein kinase TAO2 (Homo sapiens) (UniProt Q9UL54); assay: Inhibition of TAOK2 (unknown origin) at 1 uM

Sequence of Ephrin type-A receptor 5 (Homo sapiens) (P54756 whole entry): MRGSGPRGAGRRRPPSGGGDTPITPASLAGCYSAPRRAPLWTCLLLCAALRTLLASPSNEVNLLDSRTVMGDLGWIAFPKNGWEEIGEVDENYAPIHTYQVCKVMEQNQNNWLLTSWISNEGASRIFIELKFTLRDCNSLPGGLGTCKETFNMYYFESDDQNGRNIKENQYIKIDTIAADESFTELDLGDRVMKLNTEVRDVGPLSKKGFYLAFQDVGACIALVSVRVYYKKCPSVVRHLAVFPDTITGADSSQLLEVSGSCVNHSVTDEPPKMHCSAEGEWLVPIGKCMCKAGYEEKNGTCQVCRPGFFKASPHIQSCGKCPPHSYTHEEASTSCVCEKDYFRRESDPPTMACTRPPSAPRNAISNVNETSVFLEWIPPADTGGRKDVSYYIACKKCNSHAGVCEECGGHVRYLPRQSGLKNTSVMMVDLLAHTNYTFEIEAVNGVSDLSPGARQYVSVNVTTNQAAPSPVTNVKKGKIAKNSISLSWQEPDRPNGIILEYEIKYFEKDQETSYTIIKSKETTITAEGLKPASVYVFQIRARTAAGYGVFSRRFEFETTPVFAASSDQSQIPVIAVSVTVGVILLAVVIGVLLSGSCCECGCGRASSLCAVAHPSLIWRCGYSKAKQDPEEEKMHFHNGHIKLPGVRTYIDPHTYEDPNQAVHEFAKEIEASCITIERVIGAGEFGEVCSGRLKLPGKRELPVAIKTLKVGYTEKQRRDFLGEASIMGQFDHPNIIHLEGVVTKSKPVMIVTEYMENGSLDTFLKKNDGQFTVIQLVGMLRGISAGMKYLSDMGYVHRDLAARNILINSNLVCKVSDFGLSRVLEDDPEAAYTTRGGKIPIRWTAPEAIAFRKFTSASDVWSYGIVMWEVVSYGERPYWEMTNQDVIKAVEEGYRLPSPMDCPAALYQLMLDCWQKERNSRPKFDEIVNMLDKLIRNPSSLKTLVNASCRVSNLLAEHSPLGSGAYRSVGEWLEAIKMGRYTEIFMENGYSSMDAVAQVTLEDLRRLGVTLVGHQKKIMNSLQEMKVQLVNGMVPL
Sequence of Dual specificity protein kinase CLK2 (Homo sapiens) (P49760 whole entry, looked up): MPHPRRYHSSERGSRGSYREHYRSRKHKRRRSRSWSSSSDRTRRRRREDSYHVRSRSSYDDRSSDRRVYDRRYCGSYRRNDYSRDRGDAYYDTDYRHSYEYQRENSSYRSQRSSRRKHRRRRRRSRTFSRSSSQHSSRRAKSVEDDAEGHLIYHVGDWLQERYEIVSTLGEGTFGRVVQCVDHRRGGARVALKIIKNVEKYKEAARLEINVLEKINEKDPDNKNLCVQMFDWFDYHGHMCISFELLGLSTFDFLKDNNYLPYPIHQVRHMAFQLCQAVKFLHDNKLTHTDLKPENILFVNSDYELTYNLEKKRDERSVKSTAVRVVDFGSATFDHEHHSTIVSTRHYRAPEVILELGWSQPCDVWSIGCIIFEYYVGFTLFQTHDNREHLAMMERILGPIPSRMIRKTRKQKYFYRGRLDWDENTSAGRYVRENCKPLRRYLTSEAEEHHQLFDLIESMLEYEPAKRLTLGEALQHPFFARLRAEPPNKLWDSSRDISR
Sequence of Rho-associated protein kinase 1 (Homo sapiens) (Q13464 2-1354 limits assumed): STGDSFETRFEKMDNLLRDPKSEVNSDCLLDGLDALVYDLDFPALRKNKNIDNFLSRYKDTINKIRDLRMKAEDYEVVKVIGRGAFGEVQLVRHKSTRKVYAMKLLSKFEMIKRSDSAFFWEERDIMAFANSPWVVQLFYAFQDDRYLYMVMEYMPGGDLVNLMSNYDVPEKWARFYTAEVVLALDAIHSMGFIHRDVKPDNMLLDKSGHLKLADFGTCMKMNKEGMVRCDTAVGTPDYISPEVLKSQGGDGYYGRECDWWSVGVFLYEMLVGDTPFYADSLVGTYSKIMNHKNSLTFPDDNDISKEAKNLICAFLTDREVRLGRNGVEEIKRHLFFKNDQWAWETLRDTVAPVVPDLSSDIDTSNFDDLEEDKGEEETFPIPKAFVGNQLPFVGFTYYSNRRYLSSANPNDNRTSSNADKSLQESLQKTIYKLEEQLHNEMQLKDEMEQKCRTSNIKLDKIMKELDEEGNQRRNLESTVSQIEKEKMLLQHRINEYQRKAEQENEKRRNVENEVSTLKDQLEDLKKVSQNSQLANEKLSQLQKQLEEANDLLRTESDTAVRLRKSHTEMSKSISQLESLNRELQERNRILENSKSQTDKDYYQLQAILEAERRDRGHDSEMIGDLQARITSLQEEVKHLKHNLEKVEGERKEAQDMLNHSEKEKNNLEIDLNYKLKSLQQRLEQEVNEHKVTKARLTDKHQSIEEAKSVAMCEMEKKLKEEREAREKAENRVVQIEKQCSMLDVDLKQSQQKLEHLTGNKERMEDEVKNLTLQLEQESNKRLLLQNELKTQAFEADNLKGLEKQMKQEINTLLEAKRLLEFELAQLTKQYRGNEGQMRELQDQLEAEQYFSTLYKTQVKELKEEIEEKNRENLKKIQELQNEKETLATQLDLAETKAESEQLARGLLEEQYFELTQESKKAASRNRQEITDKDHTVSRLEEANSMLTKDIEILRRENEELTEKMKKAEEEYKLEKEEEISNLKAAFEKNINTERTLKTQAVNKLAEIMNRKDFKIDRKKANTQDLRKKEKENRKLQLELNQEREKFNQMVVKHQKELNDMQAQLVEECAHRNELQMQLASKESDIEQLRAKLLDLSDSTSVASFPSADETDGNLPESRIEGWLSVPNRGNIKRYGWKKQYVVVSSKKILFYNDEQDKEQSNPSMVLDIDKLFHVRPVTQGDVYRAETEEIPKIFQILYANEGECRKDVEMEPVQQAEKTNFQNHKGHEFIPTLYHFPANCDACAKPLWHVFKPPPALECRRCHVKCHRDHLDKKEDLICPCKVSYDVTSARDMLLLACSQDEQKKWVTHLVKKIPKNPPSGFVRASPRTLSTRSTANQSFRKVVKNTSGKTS
Sequence of Inhibitor of nuclear factor kappa-B kinase subunit beta (Homo sapiens) (O14920 whole entry): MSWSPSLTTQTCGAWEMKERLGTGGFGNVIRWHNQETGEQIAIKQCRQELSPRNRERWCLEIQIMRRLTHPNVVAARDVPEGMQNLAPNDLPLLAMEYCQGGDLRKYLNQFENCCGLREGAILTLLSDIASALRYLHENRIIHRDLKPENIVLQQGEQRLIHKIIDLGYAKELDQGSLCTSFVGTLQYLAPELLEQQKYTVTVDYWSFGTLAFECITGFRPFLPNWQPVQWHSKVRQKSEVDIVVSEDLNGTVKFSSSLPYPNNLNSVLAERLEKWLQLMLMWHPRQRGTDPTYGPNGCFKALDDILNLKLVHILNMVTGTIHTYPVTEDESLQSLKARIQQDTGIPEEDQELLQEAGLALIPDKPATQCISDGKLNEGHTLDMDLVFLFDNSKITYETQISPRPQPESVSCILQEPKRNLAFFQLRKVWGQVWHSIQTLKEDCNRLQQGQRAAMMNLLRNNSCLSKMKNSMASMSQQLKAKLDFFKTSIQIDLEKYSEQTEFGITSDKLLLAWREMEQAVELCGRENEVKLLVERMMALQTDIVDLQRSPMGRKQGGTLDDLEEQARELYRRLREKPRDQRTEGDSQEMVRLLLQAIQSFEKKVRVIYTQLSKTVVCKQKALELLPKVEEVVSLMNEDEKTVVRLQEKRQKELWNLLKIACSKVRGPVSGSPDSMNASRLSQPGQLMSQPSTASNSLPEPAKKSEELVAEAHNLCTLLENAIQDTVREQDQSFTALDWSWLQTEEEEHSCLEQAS
Sequence of Myosin-IIIb (Homo sapiens) (Q8WXR4 whole entry): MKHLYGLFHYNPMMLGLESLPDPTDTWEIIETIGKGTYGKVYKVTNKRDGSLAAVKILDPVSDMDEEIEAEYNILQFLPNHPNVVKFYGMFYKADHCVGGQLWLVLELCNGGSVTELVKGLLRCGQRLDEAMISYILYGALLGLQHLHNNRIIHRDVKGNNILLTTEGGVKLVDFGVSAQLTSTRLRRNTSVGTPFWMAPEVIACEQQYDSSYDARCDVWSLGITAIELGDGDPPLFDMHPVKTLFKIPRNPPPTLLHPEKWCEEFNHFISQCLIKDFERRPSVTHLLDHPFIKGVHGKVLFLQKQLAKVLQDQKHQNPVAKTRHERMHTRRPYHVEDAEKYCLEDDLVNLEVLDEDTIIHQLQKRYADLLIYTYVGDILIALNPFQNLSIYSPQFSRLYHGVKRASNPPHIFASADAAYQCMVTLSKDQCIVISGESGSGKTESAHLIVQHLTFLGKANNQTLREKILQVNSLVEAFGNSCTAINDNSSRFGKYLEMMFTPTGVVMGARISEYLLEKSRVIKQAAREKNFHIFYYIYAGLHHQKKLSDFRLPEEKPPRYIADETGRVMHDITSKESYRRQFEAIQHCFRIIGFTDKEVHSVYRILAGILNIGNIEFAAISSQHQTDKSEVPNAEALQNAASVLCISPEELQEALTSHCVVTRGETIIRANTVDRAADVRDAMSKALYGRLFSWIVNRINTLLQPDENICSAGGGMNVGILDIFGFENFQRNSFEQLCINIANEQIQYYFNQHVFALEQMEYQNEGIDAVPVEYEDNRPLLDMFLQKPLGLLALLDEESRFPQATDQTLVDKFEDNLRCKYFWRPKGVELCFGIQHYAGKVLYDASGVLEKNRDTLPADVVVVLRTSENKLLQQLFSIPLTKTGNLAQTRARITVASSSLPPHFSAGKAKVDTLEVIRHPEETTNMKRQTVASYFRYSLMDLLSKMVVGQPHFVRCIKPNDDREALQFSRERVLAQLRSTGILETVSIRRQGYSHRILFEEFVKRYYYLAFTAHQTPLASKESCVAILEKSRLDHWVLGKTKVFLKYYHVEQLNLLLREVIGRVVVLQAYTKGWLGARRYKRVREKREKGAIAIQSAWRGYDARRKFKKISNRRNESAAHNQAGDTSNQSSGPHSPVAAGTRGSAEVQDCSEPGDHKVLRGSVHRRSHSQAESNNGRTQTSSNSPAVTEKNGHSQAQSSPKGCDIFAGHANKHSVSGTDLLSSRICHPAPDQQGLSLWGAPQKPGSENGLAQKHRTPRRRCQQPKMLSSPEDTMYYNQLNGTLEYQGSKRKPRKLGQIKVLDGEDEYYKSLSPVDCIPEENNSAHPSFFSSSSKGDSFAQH

Q: Which results are given for `OCCOCc1cn(CCNc2nonc2/C(=N/O)Nc2ccc(F)c(Br)c2)nn1`?
A: inhibition [1]: inactive; inhibition [2]: inactive; inhibition [3]: inactive; inhibition [4]: inactive; inhibition [5]: inactive; inhibition [6]: inactive; inhibition [7]: inactive; inhibition [8]: inactive; inhibition [9]: inactive; inhibition [10]: inactive; inhibition [11]: inactive; inhibition [12]: inactive; inhibition [13]: inactive; inhibition [14]: inactive; inhibition [15]: inactive; inhibition [16]: inactive; inhibition [17]: inactive; inhibition [18]: inactive; AUC(0-inf) [19]: 3050 ng·h/mL; inhibition [20]: inactive; inhibition [21]: inactive; inhibition [22]: inactive; inhibition [23]: inactive; Activity (Mus musculus): Non-Toxic; fraction unbound [24]: 0.0672; inhibition [25]: inactive; inhibition [26]: inactive; inhibition [27]: inactive; Activity (Rattus norvegicus): Non-Toxic; inhibition [28]: inactive; inhibition [29]: inactive; inhibition [30]: inactive; inhibition [31]: inactive; inhibition [32]: inactive; inhibition [33]: inactive; inhibition [34]: inactive; inhibition [35]: inactive; inhibition [36]: inactive; inhibition [37]: inactive; inhibition [38]: inactive; Activity (HCT-116): 7.31%; inhibition [39]: inactive; inhibition [40]: inactive
